Results taken from patent US11572399B2, “Long-acting GIP peptide analogues” (University of Copenhagen, priority 2017, dated 2023).
Peptide text beside a SMILES is read from it. * marks the point of attachment. C16 diacid = O=C(O)CCCCCCCCCCCCCCC(=O)*; Palmitoyl = CCCCCCCCCCCCCCCC(=O)*

Tests used:
human GIP receptor [1] = target: T1, human GIP receptor (Homo sapiens, UniProt P48546); experiment: cAMP accumulation assay, antagonism of a GIP-mediated cAMP response (50-80% of max); type: cell-based; settings: for Fold change of IC50 versus GIP(5-30)NH2: fold change of IC50 from GIP(5-30)NH2
T1 construct: host or cells: COS-7, transient transfection (calcium phosphate), cDNA in pCMV-Script
T1 sequence (P48546 22-466): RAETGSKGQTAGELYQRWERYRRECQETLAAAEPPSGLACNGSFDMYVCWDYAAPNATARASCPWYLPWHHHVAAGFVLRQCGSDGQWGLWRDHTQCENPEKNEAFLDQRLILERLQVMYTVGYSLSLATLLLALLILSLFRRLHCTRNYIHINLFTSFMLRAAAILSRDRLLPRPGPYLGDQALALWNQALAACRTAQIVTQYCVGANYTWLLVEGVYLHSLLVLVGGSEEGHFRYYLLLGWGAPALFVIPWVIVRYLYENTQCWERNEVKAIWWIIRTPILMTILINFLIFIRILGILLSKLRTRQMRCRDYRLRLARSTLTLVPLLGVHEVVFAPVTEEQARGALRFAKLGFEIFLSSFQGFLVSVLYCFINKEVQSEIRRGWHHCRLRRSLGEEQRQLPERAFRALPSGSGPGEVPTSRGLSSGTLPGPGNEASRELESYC
Procedure: The day after, the cells were washed twice with Hepes buffered saline (HBS) buffer and incubated with HBS and 1 mM 3-isobutyl-1-methylxanthine (IBMX) for 30 min at 37° C. […] The HitHunter™ cAMP XS assay (DiscoveRx) was carried out according to the manufacturer's instructions.

human GIP receptor [2] = target: T1, human GIP receptor; experiment: 125I-human GIP competition binding assay, in the presence and absence of 2% HSA; settings: for Fold change HSA (2%)/Casein (0.1%): IC50 (plus HSA)/IC50 (minus HSA); for Fold change in affinity, IC50 (plus HSA)/IC50 (minus HSA): presence vs absence of 2% HSA, proxy for albumin binding; for Binding (+/−HSA) Fold: fold change +HSA/−HSA;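 as to all read-outs here: nonspecific binding taken as radioligand bound to untransfected cells, IC50 obtained from nonlinear regression fits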
human GIP receptor [3] = target: T1, human GIP receptor; experiment: cAMP accumulation assay, agonism (ligand alone); type: cell-based; settings: COS-7 cells, Table 1; for Emax: COS-7, intrinsic cAMP activity; for EC50: read-out: cAMP agonism nM (EC50)
[4] = binding in 0.1% casein (absence of HSA), log value, read-out: logIC50 0.1% casein (converted)
[5] = antagonism of GIP-mediated cAMP response, COS-7 cells, read-out: cAMP accumulation IC50
[6] = transiently transfected COS-7 cells, Table 1 and text, read-out: cAMP antagonism nM (IC50, antagonistic potency)
[7] = heterologous competition binding, transiently transfected COS-7 cells expressing the human GIP receptor, read-out: Binding

Structure (SMILES)	Ability to antagonize the GIP-mediated cAMP response (in words) (human GIP receptor [1])	Affinity compared to GIP(3-30)NH2 (in words) (human GIP receptor [2])	Fold change HSA (2%)/Casein (0.1%) (human GIP receptor [2])	IC50 (human GIP receptor [2]; [4]) [nM]	Fold change in affinity, IC50 (plus HSA)/IC50 (minus HSA) (human GIP receptor [2]) [fold]	Emax (human GIP receptor [3]) [%]	EC50 (human GIP receptor [3]) [nM]	IC50 (human GIP receptor [1]; [5]) [nM]	Fold change of IC50 versus GIP(5-30)NH2 (human GIP receptor [1])	IC50 (human GIP receptor [1]; [6]) [nM]	Binding (+/−HSA) Fold (human GIP receptor [2])	IC50 (human GIP receptor [2]; [7]) [nM]	Ki (human GIP receptor [2]; presence of 2% HSA) [nM]	Ki (human GIP receptor [2]; absence of HSA) [nM]	IC50 (human GIP receptor [2]; binding in presence of 2% HSA, read-out: logIC50 2% HSA (converted)) [nM]	cAMP - antagonisme fold (paired) (human GIP receptor [1]; fold vs GIP(3-30)NH2, Table 3b) [fold]	IC50 (human GIP receptor [2]; 0.1% casein, no HSA, Table 3b, read-out: Binding logIC50 0.1% casein (converted)) [nM]	IC50 (human GIP receptor [2]; 2% HSA, Table 3b, read-out: Binding logIC50 2% HSA (converted)) [nM]	IC50 (human GIP receptor [2]; Table 3b, initial data, read-out: Binding IC50) [nM]	Binding fold (paired) (human GIP receptor [2]; fold decrease in affinity compared to GIP(3-30)NH2, Table 3b) [fold]
CC[C@H](C)[C@H](NC(=O)[C@H](CO)NC(=O)[C@H](Cc1ccc(O)cc1)NC(=O)[C@H](CC(=O)O)NC(=O)[C@H](CO)NC(=O)[C@@H](NC(=O)[C@H](Cc1ccccc1)NC(=O)[C@@H](NC(=O)CCCCCCCCCCCCC(=O)O)[C@@H](C)O)[C@@H](C)CC)C(=O)N[C@@H](C)C(=O)N[C@@H](CCSC)C(=O)N[C@@H](CC(=O)O)C(=O)N[C@@H](CCCCN)C(=O)N[C@H](C(=O)N[C@@H](Cc1c[nH]cn1)C(=O)N[C@@H](CCC(N)=O)C(=O)N[C@@H](CCC(N)=O)C(=O)N[C@@H](CC(=O)O)C(=O)N[C@@H](Cc1ccccc1)C(=O)N[C@H](C(=O)N[C@@H](CC(N)=O)C(=O)N[C@@H](Cc1c[nH]c2ccccc12)C(=O)N[C@@H](CC(C)C)C(=O)N[C@@H](CC(C)C)C(=O)N[C@@H](C)C(=O)N[C@@H](CCC(N)=O)C(=O)N[C@@H](CCCCN)C(N)=O)C(C)C)[C@@H](C)CC [AT136, [hGIP(5-30)NH2—C14diacid/5]]	high potent antagonists	affinities in the same range as GIP(3-30)NH2	15.7	50.1	15.7	20	8													
CC[C@H](C)[C@H](NC(=O)[C@H](CO)NC(=O)[C@H](Cc1ccc(O)cc1)NC(=O)[C@H](CC(=O)O)NC(=O)[C@H](CO)NC(=O)[C@@H](NC(=O)[C@H](Cc1ccccc1)NC(=O)[C@@H](NC(=O)CCCCCCCCCCCCCCC(=O)O)[C@@H](C)O)[C@@H](C)CC)C(=O)N[C@@H](C)C(=O)N[C@@H](CCSC)C(=O)N[C@@H](CC(=O)O)C(=O)N[C@@H](CCCCN)C(=O)N[C@H](C(=O)N[C@@H](Cc1c[nH]cn1)C(=O)N[C@@H](CCC(N)=O)C(=O)N[C@@H](CCC(N)=O)C(=O)N[C@@H](CC(=O)O)C(=O)N[C@@H](Cc1ccccc1)C(=O)N[C@H](C(=O)N[C@@H](CC(N)=O)C(=O)N[C@@H](Cc1c[nH]c2ccccc12)C(=O)N[C@@H](CC(C)C)C(=O)N[C@@H](CC(C)C)C(=O)N[C@@H](C)C(=O)N[C@@H](CCC(N)=O)C(=O)N[C@@H](CCCCN)C(N)=O)C(C)C)[C@@H](C)CC [AT137, [hGIP(5-30)NH2—C16diacid/5]]	high potent antagonists	affinities in the same range as GIP(3-30)NH2	1.9	316		12	18	102	3.7	182	2.0	286	117							
CC[C@H](C)[C@H](NC(=O)[C@H](CO)NC(=O)[C@H](Cc1ccc(O)cc1)NC(=O)[C@H](CC(=O)O)NC(=O)[C@H](CO)NC(=O)[C@@H](NC(=O)[C@H](Cc1ccccc1)NC(=O)[C@@H](NC(=O)CCCCCCCCCCCCCCCCC(=O)O)[C@@H](C)O)[C@@H](C)CC)C(=O)N[C@@H](C)C(=O)N[C@@H](CCSC)C(=O)N[C@@H](CC(=O)O)C(=O)N[C@@H](CCCCN)C(=O)N[C@H](C(=O)N[C@@H](Cc1c[nH]cn1)C(=O)N[C@@H](CCC(N)=O)C(=O)N[C@@H](CCC(N)=O)C(=O)N[C@@H](CC(=O)O)C(=O)N[C@@H](Cc1ccccc1)C(=O)N[C@H](C(=O)N[C@@H](CC(N)=O)C(=O)N[C@@H](Cc1c[nH]c2ccccc12)C(=O)N[C@@H](CC(C)C)C(=O)N[C@@H](CC(C)C)C(=O)N[C@@H](C)C(=O)N[C@@H](CCC(N)=O)C(=O)N[C@@H](CCCCN)C(N)=O)C(C)C)[C@@H](C)CC [AT138, [hGIP(5-30)NH2—C18diacid/5]]	failed to antagonize		3.8	2510		0						2640								
CC[C@H](C)[C@H](NC(=O)[C@H](CO)NC(=O)[C@H](Cc1ccc(O)cc1)NC(=O)[C@H](CC(=O)O)NC(=O)[C@H](CO)NC(=O)[C@@H](NC(=O)[C@H](Cc1ccccc1)NC(=O)[C@@H](N)[C@@H](C)O)[C@@H](C)CC)C(=O)N[C@@H](C)C(=O)N[C@@H](CCSC)C(=O)N[C@@H](CC(=O)O)C(=O)N[C@@H](CCCCNC(=O)CCCCCCCCCCCCCCC(=O)O)C(=O)N[C@H](C(=O)N[C@@H](Cc1c[nH]cn1)C(=O)N[C@@H](CCC(N)=O)C(=O)N[C@@H](CCC(N)=O)C(=O)N[C@@H](CC(=O)O)C(=O)N[C@@H](Cc1ccccc1)C(=O)N[C@H](C(=O)N[C@@H](CC(N)=O)C(=O)N[C@@H](Cc1c[nH]c2ccccc12)C(=O)N[C@@H](CC(C)C)C(=O)N[C@@H](CC(C)C)C(=O)N[C@@H](C)C(=O)N[C@@H](CCC(N)=O)C(=O)N[C@@H](CCCCN)C(N)=O)C(C)C)[C@@H](C)CC [AT140, [hGIP(5-30)NH2—C16diacid/16]]			1.5	2000		0			7.4	205	1.5	2160		2160	3280					
CCCCCCCCCCCCCCCC(=O)NCCCC[C@H](NC(=O)[C@@H](NC(=O)[C@H](CCCCN)NC(=O)[C@H](CC(=O)O)NC(=O)[C@H](CC(C)C)NC(=O)[C@H](C)NC(=O)[C@@H](NC(=O)[C@H](CO)NC(=O)[C@H](Cc1ccc(O)cc1)NC(=O)[C@H](CC(=O)O)NC(=O)[C@H](CO)NC(=O)[C@@H](NC(=O)[C@H](Cc1ccccc1)NC(=O)[C@@H](NC(=O)CNC(=O)[C@@H](N)CCC(=O)O)[C@@H](C)O)[C@@H](C)CC)[C@@H](C)CC)[C@@H](C)CC)C(=O)N[C@@H](CCC(N)=O)C(=O)N[C@@H](CCC(N)=O)C(=O)N[C@@H](CC(=O)O)C(=O)N[C@@H](Cc1ccccc1)C(=O)N[C@H](C(=O)N[C@@H](CC(N)=O)C(=O)N[C@@H](Cc1c[nH]c2ccccc12)C(=O)N[C@@H](CC(C)C)C(=O)N[C@@H](CC(C)C)C(=O)N[C@@H](C)C(=O)N[C@@H](CCC(N)=O)C(=O)N[C@@H](CCCCN)C(N)=O)C(C)C [AT143, [hGIP(3-30)NH2[M14L; H18K]-C16/18]] (H-EGTFISDYSIALDKIK(Palmitoyl)QQDFVNWLLAQK-NH2; N-terminus assumed)					1.2	40				15		80				0.3	86.1	105	86.1	11
CC[C@H](C)[C@H](NC(=O)[C@H](CO)NC(=O)[C@H](Cc1ccc(O)cc1)NC(=O)[C@H](CC(=O)O)NC(=O)[C@H](CO)NC(=O)[C@@H](NC(=O)[C@H](Cc1ccccc1)NC(=O)[C@@H](N)[C@@H](C)O)[C@@H](C)CC)C(=O)N[C@@H](C)C(=O)N[C@@H](CCSC)C(=O)N[C@@H](CC(=O)O)C(=O)N[C@@H](CCCCN)C(=O)N[C@H](C(=O)N[C@@H](CCCCNC(=O)CCCCCCCCCCCCCCC(=O)O)C(=O)N[C@@H](CCC(N)=O)C(=O)N[C@@H](CCC(N)=O)C(=O)N[C@@H](CC(=O)O)C(=O)N[C@@H](Cc1ccccc1)C(=O)N[C@H](C(=O)N[C@@H](CC(N)=O)C(=O)N[C@@H](Cc1c[nH]c2ccccc12)C(=O)N[C@@H](CC(C)C)C(=O)N[C@@H](CC(C)C)C(=O)N[C@@H](C)C(=O)N[C@@H](CCC(N)=O)C(=O)N[C@@H](CCCCN)C(N)=O)C(C)C)[C@@H](C)CC [AT156, [hGIP(5-30)NH2[H18K]-C16diacid/18]] (H-TFISDYSIAMDKIK(C16 diacid)QQDFVNWLLAQK-NH2; N-terminus assumed)						12	2	24	0.9	12	5.8		29	5						
